Results: patent publication US7271260B2, “3,4-dihydroquinazoline derivatives as T-type calcium channel blockers and method of preparing the same” (Korea Institute of Science and Technology, priority 2004, dated 2007)
Read-outs that look alike come from different tables or passages of the source.

Key:
[1] = biological target: T1, α1G T-type calcium channel (Rattus norvegicus, UniProt O54898); test: Whole cell patch clamp on HEK 293 cells expressing α1G T-type calcium channel; format: cell-based; settings: for inhibition at 10 µM: HEK293; for channel inhibitory effect relative to Mibefradil (comparing IC50 values): HEK 293 cells (α1G), IC50 compared with Mibefradil; for IC50: read-out: IC50, HEK293 cells (α1G)
T1 construct: expressed in transfected cells; Perez-Reyes, University of Virginia
Procedure: HEK 293 cells were cultured in Dulbecco's modified Eagle's medium (DMEM) supplemented with 10% fetal bovine serum (FBS) and 1% penicillin/streptomycin (v/v) in 36.5° C. humidified incubator (95% air-5% CO2). The culture solution was replaced with a fresh medium every 3 to 4 days and the cultured cells were subjected to sub-culture every week. At this time, the culture solution was treated with G-418 (0.5 mg/ml) solution so that only HEK 293 cells expressing α1G T-type calcium channel can grow. The cells used for the T-type calcium channel activity assay were cultured on a cover slip coated with poly-L-lysine (0.5 mg/ml) whenever sub-cultured and their calcium channel activity was recorded 2 to 7 days after the cultivation. The current of the T-type calcium channel at a single cell level was measured according to an electrophysiological whole cell patch clamping method using EPC-9 amplifier (HEKA, German). At this time, a cell exterior solution [140 mM NaCl, 2 mM CaCl2, 10 mM HEPES (pH 7.4)] and a cell interior solution [KCl 130 mM, HEPES 10 mM, EGTA 11 mM, MgATP 5 mM (pH 7.4)] were employed. The inward current caused by the T-type calcium channel activation was measured according to a T-type calcium channel protocol activated at low current. Such current occurs when the cells were converted into a whole-cell recording mode by stabbing a microglass electrode having 3-4 MΩ resistance, which was filled with the cell interior solution into a single cell and depolarized at −30 mV (50 ms duration period) every 10 seconds with fixing membrane potential to −100 mV.
In order to confirm whether the cells and methods used in Test Example 2 are a suitable screening system for selecting T-type calcium channel blockers, the results obtained in Example 2 were compared with those of α1G T-type calcium channel study reported in a public document (Monteil, A. et al., J. Biol. Chem. 275, 6090-6100, 2000). […] Thus, the candidate compounds were subjected to a test for their inhibitory effects on the T-type calcium channel according to the screening system of the present invention, as follows. Each compound was dissolved in 100% dimethylsulfoxide (DMSO) to prepare 10 mM stock solution. The inhibitory effect on the T-type calcium channel current was examined in 10 μM sample solution (containing 0.1% DMSO) prepared by diluting the stock solution by 1000-fold. The cells were treated with each compound at a concentration of 10 μM for 30 to 60 sec with the cell exterior solution.

[2] = system: Na+ channel; test: Patch clamp of sodium current in MPG (major pelvic ganglion) neurons; format: cell-based, rat; settings: MPG neuron, 10 μM; for selectivity for the calcium channel versus the sodium channel: from Table 3; for Inhibitory effect, Na+ channel: n.i. = no inhibitory effect
Procedure: In order to examine the selectivity of the compound of the present invention for other ion channels, the inhibitory effects of KYS05001, KYS05041 and KYS05042 on […] and high voltage-activated Ca2+ channel (HVA) were measured according to a conventional method (Lee, J.-H. et al., J. Neurophysiol. 2002, 87, 2844-2850) using MPG (major pelvic ganglion).
Male Sprague-Dawley rats having about 250 g of an average body weight were employed as experimental animals. After the rats were anesthetized with sodium pentobarbital (50 mg/kg, i.p.), the abdomen was cut open immediately. MPG located on the left side of the prostate was extracted and then transferred in cold (4° C.) Hank's balanced salt solution (HBSS, GibcoBRL). The connective tissue encompassing the ganglion was stripped therefrom and a small gap was made carefully on the naked ganglion with a sharp knife. Then, the ganglion was cultured in 10 ml of modified Earle's balanced salt solution (EBSS, pH 7.4, GibcoBRL) supplemented with 0.7 mg/ml of collagenase (type D), 0.3 mg/ml of trypsin and 0.1 mg/ml of DNAse type I at 35° C. for 1 hour (Zhu et al., J. Physiol. Lond. 1995, 489, 363-375). At this time, 3.6 g/l of glucose and 10 mM HEPES were added to EBSS. After the cultivation was completed, the culture flask was shaken to separate call clusters into a single nerve cell and subjected to centrifugation at 1000 rpm with a clinical centrifuge (International Equipment Company, Mass., U.S.A.). The separated single nerve cells were re-suspended in MEM (GibcoBRL) supplemented with 10% fetal bovine serum, 1% glutamine and 1% penicillin/streptomycin. They were then spread on a polystyrene culture dish (35 mm) coated with poly-L-lysine. The culture dish was incubated at 37° C. humidified incubator (95% air-5% CO2) and the cells were used in the following experiment within 24 hours after the separation.
The voltage-dependent calcium and sodium current were recorded according to a typical patch clamping method using a patch clamp amplifier (Axopatch 1D, Axon Instruments, Foster City, Calif., U.S.A.) at a whole-cell ruptured configuration (Hamill et al., Pflügers Arch. 1981, 391, 85-100). An electrode was made from a borosilicate glass capillary tube (outer diameter; 1.65 mm, inner diameter; 1.2 mm, Corning 7052, Garner Glass Co., Claremont, Calif., U.S.A.) using P-97 Flaming-Brown micropipette puller (Sutter Instrument Co., Novato, Calif., U.S.A.) and forged smoothly by heating with a microforge. The electrode showing 1˜3 MΩ of resistance when filled with a solution was used for the following experiment. The culture dish containing the nerve cells was placed on an inverted microscope and the cell exterior solution was flowed into the dish at a flow rate of about 1˜2 ml/min. The membrane capacitance and series resistance were corrected by 80% or more with an amplifier. The voltage generation and record of calcium current were carried out using S4 software (provided by Dr. Stephen R. Ikeda, National Institute on Alcohol Abuse and Alcoholism, NIH, USA) equipped in Macintosh computer, which was connected to an analogue/digital converter (Digidata 1200, Axon Instruments Co.). The calcium current, which passed through a low band pass filter at 2˜5 kHz, was stored in Macintosh computer and analyzed with IGOR PRO (Wave-Metrics, Lake Oswego, Oreg., U.S.A.). All the experiments were conducted at a room temperature ranging from 20 to 22° C.
The electrode for measuring the calcium current was filled with the solution comprising 120 mM N-methyl-D-glucamine (NMG) methanesulfonate (MS), 20 mM tetraethylammonium (TEA)-MS, 20 mM HCl, 11 mM EGTA, 10 mM HEPES, 1 mM CaCl2, 4 mM MgATP, 0.3 mM Na2GTP and 14 mM tris-phosphocreatine (pH 7.2, 290 mOsm). The extracellular infusion fluid was composed of 140 mM MS, 145 mM TEA-OH, 10 mM HEPES, 15 mM glucose, 10 mM CaCl2 and 0.0003 mM tetrodotoxin (TTX, pH 7.4, 320 mOsm). […]

[3] = HEK 293 cells expressing α1G, 30 to 60 sec treatment, read-out: inhibitory effect on peak current, HEK293 cells (α1G) at 10 μM
[4] = Table 3 title says MPG neuron, values equal HEK 293 (α1G) values of Table 2, read-out: Inhibitory effect, Ca2+ channel T-type (LVA)

T1 sequence (O54898 whole entry): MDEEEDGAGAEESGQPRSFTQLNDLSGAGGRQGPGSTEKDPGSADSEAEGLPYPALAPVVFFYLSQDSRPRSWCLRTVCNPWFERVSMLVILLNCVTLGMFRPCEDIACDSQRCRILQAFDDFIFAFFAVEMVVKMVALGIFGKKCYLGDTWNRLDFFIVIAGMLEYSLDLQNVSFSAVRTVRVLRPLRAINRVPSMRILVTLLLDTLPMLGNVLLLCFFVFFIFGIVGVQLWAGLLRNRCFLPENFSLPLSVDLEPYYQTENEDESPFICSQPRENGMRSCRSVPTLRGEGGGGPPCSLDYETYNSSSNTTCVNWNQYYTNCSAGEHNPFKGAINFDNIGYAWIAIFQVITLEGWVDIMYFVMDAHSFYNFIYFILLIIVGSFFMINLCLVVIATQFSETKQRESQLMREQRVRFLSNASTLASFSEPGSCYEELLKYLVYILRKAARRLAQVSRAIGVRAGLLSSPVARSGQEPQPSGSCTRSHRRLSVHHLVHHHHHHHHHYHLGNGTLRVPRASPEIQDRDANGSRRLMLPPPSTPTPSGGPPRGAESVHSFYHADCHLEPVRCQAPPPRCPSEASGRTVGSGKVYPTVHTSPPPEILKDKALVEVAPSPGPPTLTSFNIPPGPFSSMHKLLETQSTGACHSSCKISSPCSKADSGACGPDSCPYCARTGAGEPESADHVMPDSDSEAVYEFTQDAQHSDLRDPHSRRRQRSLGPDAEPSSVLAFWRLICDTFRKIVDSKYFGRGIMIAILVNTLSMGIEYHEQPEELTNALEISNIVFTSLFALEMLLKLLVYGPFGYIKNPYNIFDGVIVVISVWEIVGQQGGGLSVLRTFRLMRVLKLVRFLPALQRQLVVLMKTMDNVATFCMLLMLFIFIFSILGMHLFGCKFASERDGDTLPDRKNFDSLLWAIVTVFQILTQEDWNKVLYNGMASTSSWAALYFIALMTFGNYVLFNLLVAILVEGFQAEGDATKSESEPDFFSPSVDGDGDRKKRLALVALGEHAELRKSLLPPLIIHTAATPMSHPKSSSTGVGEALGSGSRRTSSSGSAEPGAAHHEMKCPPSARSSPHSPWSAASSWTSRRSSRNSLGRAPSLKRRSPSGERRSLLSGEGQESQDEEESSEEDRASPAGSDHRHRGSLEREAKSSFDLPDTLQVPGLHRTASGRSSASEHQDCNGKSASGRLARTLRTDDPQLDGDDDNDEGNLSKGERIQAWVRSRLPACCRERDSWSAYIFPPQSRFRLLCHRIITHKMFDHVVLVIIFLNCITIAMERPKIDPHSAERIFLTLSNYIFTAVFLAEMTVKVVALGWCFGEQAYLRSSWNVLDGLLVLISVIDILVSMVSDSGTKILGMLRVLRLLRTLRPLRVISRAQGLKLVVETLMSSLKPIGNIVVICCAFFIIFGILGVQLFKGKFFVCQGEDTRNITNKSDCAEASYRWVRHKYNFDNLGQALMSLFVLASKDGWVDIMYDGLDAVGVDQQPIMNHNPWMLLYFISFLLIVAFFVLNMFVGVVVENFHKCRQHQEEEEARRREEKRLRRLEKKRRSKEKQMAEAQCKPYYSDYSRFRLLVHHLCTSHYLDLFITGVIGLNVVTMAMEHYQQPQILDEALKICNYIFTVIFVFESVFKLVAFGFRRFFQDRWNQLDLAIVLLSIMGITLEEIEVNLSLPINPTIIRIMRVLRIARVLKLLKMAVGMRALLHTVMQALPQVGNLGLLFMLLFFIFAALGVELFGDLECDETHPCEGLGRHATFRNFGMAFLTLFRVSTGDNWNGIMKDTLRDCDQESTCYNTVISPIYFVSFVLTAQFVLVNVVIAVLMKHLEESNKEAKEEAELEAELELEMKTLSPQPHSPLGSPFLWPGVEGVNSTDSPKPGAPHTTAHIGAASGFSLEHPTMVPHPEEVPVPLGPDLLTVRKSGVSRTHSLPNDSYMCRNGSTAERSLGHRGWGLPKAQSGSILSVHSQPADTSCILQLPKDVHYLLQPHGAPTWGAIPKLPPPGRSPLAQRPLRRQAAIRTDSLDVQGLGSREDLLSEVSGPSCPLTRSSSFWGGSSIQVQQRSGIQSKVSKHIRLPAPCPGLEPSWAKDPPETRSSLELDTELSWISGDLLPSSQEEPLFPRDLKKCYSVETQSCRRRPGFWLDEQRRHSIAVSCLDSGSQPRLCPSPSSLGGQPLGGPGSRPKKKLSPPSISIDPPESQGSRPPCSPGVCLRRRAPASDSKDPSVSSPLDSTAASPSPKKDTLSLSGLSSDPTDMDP

inhibition at 10 µM [1, 3] [%]	inhibition at 10 µM [1, 4] [%]	channel inhibitory effect relative to Mibefradil (comparing IC50 values) [1]	IC50 ([1]; HEK 293 cells expressing α1G) [nM]	Structure (SMILES)	selectivity for the calcium channel versus the sodium channel [2]	Inhibitory effect, Na+ channel [2]
89.9	89.9	about 3.4 fold	250	Cc1ccc(S(=O)(=O)Nc2ccc(CNC(=O)CC3c4ccccc4N=C(N4CCCCC4)N3c3ccccc3)cc2)cc1 (stereo not drawn) [KYS05041, 4-{N-[4-(4-methylbenzenesulfonylamido)benzyl]acetamido}-3-phenyl-2-(piperidine-1-yl)-3,4-dihydroquinazoline]	higher selectivity for the calcium channel than the sodium channel	n.i.^b
89	89	~4.2 fold	200	O=C(CC1c2ccccc2N=C(N2CCCCC2)N1c1ccccc1)NCc1ccc(NS(=O)(=O)c2ccc(F)cc2)cc1 (stereo not drawn) [KYS05042, 4-{N-[4-(4-fluorobenzenesulfonylamido)benzyl]acetamido}-3-phenyl-2-(piperidine-1-yl)-3,4-dihydroquinazoline]	higher selectivity for the calcium channel than the sodium channel	n.i.^b

Structure (SMILES)	inhibition at 10 µM [1, 3] [%]	inhibition at 10 µM [1, 4] [%]	channel inhibitory effect relative to Mibefradil (comparing IC50 values) [1]	IC50 ([1]; HEK 293 cells expressing α1G) [nM]	selectivity for the calcium channel versus the sodium channel [2]	Inhibitory effect, Na+ channel [2]
O=C(CC1c2ccccc2N=C(N2CCCCC2)N1c1ccccc1)NCc1ccccc1 (stereo not drawn) [KYS05001]	90.1	90.1	almost the same calcium channel inhibitory effect as Mibefradil	900	higher selectivity for the calcium channel than the sodium channel	n.i.^b
